Laboratory results taken from paper PMC12663137 (Nature Communications, 2025).
Several values for one entry are separate records, joined by “and”; a condition that tells them apart may be missing. Identical values can stand only once.

How the values were obtained:
SV2AEM = target: T1, SV2AEM (Homo sapiens, UniProt Q7L0J3); test: Competitive displacement of 10 nM 3H-UCB-J, SV2AEM membranes (Fig. 1A); type: binding; conditions: for Binding of 3H-UCB-J (%): SV2A_EM; for binding response of SV2AEM vs wild-type SV2A: competition with 3H-UCB-J
T1 construct: expressed in transfected cells; host or cells: HEK293 (ATCC CRL-1573), crude membranes (transient transfection or baculovirus)
T1 sequence (Q7L0J3 141-742): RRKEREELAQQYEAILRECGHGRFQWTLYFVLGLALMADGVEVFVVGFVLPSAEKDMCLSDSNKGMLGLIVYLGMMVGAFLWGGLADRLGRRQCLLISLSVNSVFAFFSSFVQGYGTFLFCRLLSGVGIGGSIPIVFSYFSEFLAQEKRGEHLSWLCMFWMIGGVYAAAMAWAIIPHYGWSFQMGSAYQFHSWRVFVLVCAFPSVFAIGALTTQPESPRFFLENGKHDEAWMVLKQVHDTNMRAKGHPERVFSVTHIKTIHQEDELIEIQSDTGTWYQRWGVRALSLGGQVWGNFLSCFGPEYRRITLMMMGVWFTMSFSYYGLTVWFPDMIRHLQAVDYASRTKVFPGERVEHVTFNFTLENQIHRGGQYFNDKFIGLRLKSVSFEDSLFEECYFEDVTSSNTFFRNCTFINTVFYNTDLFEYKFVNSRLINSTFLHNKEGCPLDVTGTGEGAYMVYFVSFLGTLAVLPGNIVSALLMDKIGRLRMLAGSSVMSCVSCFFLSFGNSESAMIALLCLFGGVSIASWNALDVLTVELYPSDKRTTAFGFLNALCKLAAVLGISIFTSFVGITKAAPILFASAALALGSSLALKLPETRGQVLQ
Protocol: (§1) Ligand binding studies were carried out using crude membranes prepared from HEK293 cells (ATCC, CRL-1573) overexpressing mVenus-SV2AWT or SV2AEM. Membranes were prepared either from transiently transfected cells or from baculovirus-infected cells as described previously. Cells were washed with DPBS (Ca^2+ and Mg^2+ free), followed by resuspending in cold SH buffer (10 mM HEPES-Tris pH 7.4, 320 mM sucrose) containing protease inhibitor cocktail (MedChemExpress) to a density of 10^7 cells/ml. This cell suspension was homogenized by passing through a bead homogenizer (Isobiotec) with 10-micron clearance bead on ice. The lysate was then centrifuged at 4000 × g for 5 min at 4 °C, and the supernatant was aliquoted, frozen in liquid nitrogen, and stored at −80 °C. The mVenus fluorescence estimated using fluorescence size-exclusion chromatography (FSEC) was used to normalize expression levels of mVenus-SV2A mutants studied as detailed previously. For all binding studies, membranes containing […] protein (estimated by BCA method) per reaction were used.
(§2) To obtain dose-response curves of studied SV2A ligands, membranes diluted in 0.2 ml binding buffer (50 mM Tris-Cl, pH 7.4, and 2 mM MgCl2) were incubated with indicated concentrations of ligands for 30 min at 4 °C. […] The binding reaction was arrested by trapping membranes on Unifilter-GF/C 96-well filter plates (Revvity) pre-soaked with 0.1%(w/v) polyethyleneimine (PEI). Membranes were then washed four times with 0.2 ml of cold binding buffer, dried, and 40 µl of scintillation liquid was added to each well. Radioactivity was monitored in MicroBeta2 plate counter (Revvity). Estimates for IC50 were obtained from fitting the data to three-parameter dose-response curves using GraphPad Prism 10.

SV2AWT = target: T2, SV2AWT (Homo sapiens, UniProt Q7L0J3); test: Competitive displacement of 10 nM 3H-UCB-J, SV2AWT membranes (Fig. 1A); type: binding; conditions: SV2A_WT
T2 construct: expressed in transfected cells; host or cells: HEK293 (ATCC CRL-1573), crude membranes
T2 sequence (Q7L0J3 whole entry): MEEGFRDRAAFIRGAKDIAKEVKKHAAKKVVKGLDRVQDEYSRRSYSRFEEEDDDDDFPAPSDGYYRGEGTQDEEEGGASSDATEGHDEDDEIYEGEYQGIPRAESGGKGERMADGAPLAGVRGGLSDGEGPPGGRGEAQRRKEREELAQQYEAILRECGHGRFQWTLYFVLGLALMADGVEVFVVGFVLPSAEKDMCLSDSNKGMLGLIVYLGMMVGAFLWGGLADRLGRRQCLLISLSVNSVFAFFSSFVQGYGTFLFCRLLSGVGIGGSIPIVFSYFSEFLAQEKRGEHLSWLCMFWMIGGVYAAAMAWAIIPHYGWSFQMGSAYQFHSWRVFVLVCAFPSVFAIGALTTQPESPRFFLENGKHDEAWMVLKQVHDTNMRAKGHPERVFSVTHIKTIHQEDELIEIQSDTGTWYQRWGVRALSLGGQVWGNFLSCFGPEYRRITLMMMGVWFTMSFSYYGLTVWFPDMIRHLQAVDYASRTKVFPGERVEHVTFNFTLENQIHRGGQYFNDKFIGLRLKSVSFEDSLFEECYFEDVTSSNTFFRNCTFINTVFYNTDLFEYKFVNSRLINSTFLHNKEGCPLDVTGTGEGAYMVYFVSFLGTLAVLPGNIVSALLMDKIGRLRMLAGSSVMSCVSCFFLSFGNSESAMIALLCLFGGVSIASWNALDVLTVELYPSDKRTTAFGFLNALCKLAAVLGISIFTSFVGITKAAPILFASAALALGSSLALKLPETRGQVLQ
Protocol: as §1, §2

SV2A [1] = test: Affinity of PSL for the orthosteric site compared with LEV and BRV (author response); type: binding; conditions: PSL vs LEV
From the text: - Does PSL modulate the binding of LEV or BRV to SV2A? Based on the ﬁndings of the present study, such experiments need to be included.
We appreciate this comment. It is not feasible to evaluate the modulatory eƯect of PSL on the binding of LEV or BRV, because PSL also binds to the orthosteric site, with much higher aƯinity than LEV (>1000-fold) or BRV (~100-fold), and directly competes with and readily displaces them (see Fig. below, for LEV , and PMID:
31619465 for BRV). This competitive eƯect of PSL on LEV and BRV has also been described in the literature (PMID: 31619465). We have discussed this limitation in the revised manuscript.
- SV2s belong to the SLC22 family. Is the allosteric binding site conserved in some of these proteins like for […]
Among the four key residues in the allosteric site (F188, Y461, S601, and L655), F188 and Y461 are conserved in OCT1 and OCT2; S601 is not conserved, and L655 is replaced by an alanine in OCT1 and OCT2 (Fig. below).
- Because no information is provided, I guess that the allosteric binding site of SV2A is not conserved in all MFS transporters. Therefore, the title is misleading and should be changed.
As described above, some of the key residues at this site are conserved in OCTs. However, it is unlikely that any single site, orthosteric or allosteric, is conserved across the entire MFS transporter family, and we fully […]

SV2A WT and L655Q [2] = test: 3H-padsevonil saturation binding, WT and L655Q (Supplementary Fig. 7D); design: species or system human; conditions: L655Q vs WT
Protocol: as §1
An equal volume of dimethyl sulfoxide (DMSO) was added to control reactions. Reactions were arrested after 2 h by trapping the membranes on a Unifilter-GF/C 96-well filter plate pre-soaked with 0.1%(w/v) polyethyleneimine. […] Radioactivity was monitored in MicroBeta2 plate counter. […]

SV2A WT and L655Q [3] = system: SV2A WT and L655Q; design: method as in PMID: 31619465; conditions: previous literature; ref PMID: 31619465; cited from earlier work
SV2A [4] = system: SV2A; design: method as in PMID: 31619465; conditions: PSL vs BRV; ref PMID: 31619465; cited from earlier work

## Cc1cnccc1CN1C[C@@H](c2cc(F)c(F)c(F)c2)CC1=O [UCB-J]
SV2AEM; Log [1H-UCB-J] (M) -6.523
  Binding of 3H-UCB-J (%): 2.78% and -1.47% and -5.78% and -0.31% and 4.06% and 1.75%
SV2AEM; Log [1H-UCB-J] (M) -7.523
  Binding of 3H-UCB-J (%): 15.59% and 10.62% and 12.56% and 12.68% and 13.47% and 20.94%
SV2AEM; Log [1H-UCB-J] (M) -8.000
  Binding of 3H-UCB-J (%): 31.93% and 22.52% and 28.83% and 28.77% and 31.87% and 32.29%
SV2AEM; Log [1H-UCB-J] (M) -8.523
  Binding of 3H-UCB-J (%): 75.64% and 50.69% and 48.99% and 56.15% and 58.52% and 59.86%
SV2AEM; Log [1H-UCB-J] (M) -9.000
  Binding of 3H-UCB-J (%): 73.21% and 53.48% and 72.67% and 79.47% and 76.43% and 84.63%
SV2AEM; Log [1H-UCB-J] (M) -10.000
  Binding of 3H-UCB-J (%): 81.17% and 90.15%
SV2AEM; Log [1H-UCB-J] (M) -11.000
  Binding of 3H-UCB-J (%): 103.75% and 70.18% and 88.51% and 77.34% and 86.03% and 113.17%
SV2AEM; Log [1H-UCB-J] (M) -12.000
  Binding of 3H-UCB-J (%): 116.50% and 86.88% and 109.04% and 74.97% and 104.60% and 108.00%
SV2AEM; UCB-J vs levetiracetam
  IC50 fold lower than that of levetiracetam: 1000 fold
SV2AEM
  binding response of SV2AEM vs wild-type SV2A: comparable to those of wild-type SV2A
SV2AEM; radioligand displacement, 10 nM 3H-UCB-J, padsevonil sentence prints SV2A (Fig. 1)
  IC50: 4.1 ± 0.4 nM
SV2AWT; Log [1H-UCB-J] (M) -5.000
  Binding of 3H-UCB-J (%): 0.68% and -0.10%
SV2AWT; Log [1H-UCB-J] (M) -6.000
  Binding of 3H-UCB-J (%): 0.71% and -0.36% and 1.84% and 0.28% and 0.81% and 0.45%
SV2AWT; Log [1H-UCB-J] (M) -6.523
  Binding of 3H-UCB-J (%): 1.22% and 0.52% and -0.33% and 0.54% and 1.39% and 0.90%
SV2AWT; Log [1H-UCB-J] (M) -7.523
  Binding of 3H-UCB-J (%): 12.02% and 10.25% and 9.91% and 8.99% and 8.62% and 8.05%
SV2AWT; Log [1H-UCB-J] (M) -8.000
  Binding of 3H-UCB-J (%): 31.03% and 29.35% and 27.21% and 30.71% and 28.47% and 28.55%
SV2AWT; Log [1H-UCB-J] (M) -8.523
  Binding of 3H-UCB-J (%): 65.52% and 65.94% and 58.12% and 42.68% and 40.88% and 45.33%
SV2AWT; Log [1H-UCB-J] (M) -9.000
  Binding of 3H-UCB-J (%): 87.65% and 87.60% and 75.33% and 94.15% and 69.01% and 65.28%
SV2AWT; Log [1H-UCB-J] (M) -9.523
  Binding of 3H-UCB-J (%): 75.61% and 87.06% and 81.72% and 100.70% and 107.65% and 91.65%
SV2AWT; Log [1H-UCB-J] (M) -10.000
  Binding of 3H-UCB-J (%): 99.86% and 95.05% and 102.73% and 88.69% and 93.37% and 102.84%
SV2AWT; Log [1H-UCB-J] (M) -11.000
  Binding of 3H-UCB-J (%): 103.52% and 102.05% and 94.43% and 83.50% and 83.58% and 84.45%

## COCc1nn2c(CN3C[C@@H](CC(F)(F)Cl)CC3=O)c(C(F)(F)F)nc2s1 [padsevonil]
SV2AEM; Log [Padsevonil] (M) -5.000
  Binding of 3H-UCB-J (%): 3.25% and 0.52% and -0.52% and -1.49% and 2.74% and 1.94%
SV2AEM; Log [Padsevonil] (M) -6.000
  Binding of 3H-UCB-J (%): 0.40% and 1.18% and 0.39% and -2.99% and 2.99% and -0.40%
SV2AEM; Log [Padsevonil] (M) -6.523
  Binding of 3H-UCB-J (%): 3.53% and 6.77% and 1.25% and 5.54% and 6.72% and 2.16%
SV2AEM; Log [Padsevonil] (M) -8.000
  Binding of 3H-UCB-J (%): 61.56% and 69.84% and 60.36% and 64.16% and 85.63% and 52.51%
SV2AEM; Log [Padsevonil] (M) -8.523
  Binding of 3H-UCB-J (%): 98.63% and 86.36% and 64.73% and 84.51% and 93.84% and 76.42%
SV2AEM; Log [Padsevonil] (M) -9.000
  Binding of 3H-UCB-J (%): 99.89% and 102.95% and 84.66% and 80.15% and 101.99% and 100.11%
SV2AEM; Log [Padsevonil] (M) -10.000
  Binding of 3H-UCB-J (%): 102.45% and 91.95% and 108.05% and 96.45% and 103.55% and 82.92%
SV2AEM
  binding response of SV2AEM vs wild-type SV2A: comparable to those of wild-type SV2A
SV2AWT; Log [Padsevonil] (M) -5.523
  Binding of 3H-UCB-J (%): 0.15% and -0.08% and -0.07% and 0.0758% and -0.0562%
SV2AWT; Log [Padsevonil] (M) -6.000
  Binding of 3H-UCB-J (%): 0.06% and 0.26% and 0.47% and 0.68% and 0.17% and 0.52%
SV2AWT; Log [Padsevonil] (M) -6.523
  Binding of 3H-UCB-J (%): -0.0333% and 0.63% and 1.13% and 0.79% and 1.06%
SV2AWT; Log [Padsevonil] (M) -7.000
  Binding of 3H-UCB-J (%): 0.99% and 1.18% and 1.52% and 1.41% and 1.96% and 1.26%
SV2AWT; Log [Padsevonil] (M) -7.523
  Binding of 3H-UCB-J (%): 11.48% and 11.90% and 12.69% and 11.26% and 10.29% and 8.18%
SV2AWT; Log [Padsevonil] (M) -8.000
  Binding of 3H-UCB-J (%): 53.01% and 65.10% and 62.58% and 68.15% and 66.28% and 57.17%
SV2AWT; Log [Padsevonil] (M) -8.523
  Binding of 3H-UCB-J (%): 80.92% and 83.61% and 90.83% and 87.28% and 90.55% and 93.06%
SV2AWT; Log [Padsevonil] (M) -9.000
  Binding of 3H-UCB-J (%): 70.83% and 92.57% and 94.89% and 80.96% and 85.33% and 98.78%
SV2AWT; Log [Padsevonil] (M) -9.523
  Binding of 3H-UCB-J (%): 81.14% and 79.95% and 92.20% and 92.92% and 81.04% and 90.08%
SV2AWT; Log [Padsevonil] (M) -10.000
  Binding of 3H-UCB-J (%): 105.07% and 88.23% and 106.70% and 105.83% and 107.31% and 86.86%
SV2A [1]
  orthosteric site affinity higher than LEV: > 1000 fold
SV2A WT and L655Q [2]
  padsevonil binding in L655Q mutant compared to wild-type: not able to detect a substantial difference
SV2A WT and L655Q [3]
  Hill coefficient: ~1
SV2A [4]
  orthosteric site affinity higher than BRV: ~ 100 fold
